The conditions of this series: Crystal; visual observation.

Numbers after ± are expanded uncertainties.

For `C[C@]12C=CC(=O)N[C@@H]1CC[C@@H]1[C@@H]2CC[C@]2(C)[C@@H](C(=O)Nc3cc(C(F)(F)F)ccc3C(F)(F)F)CC[C@@H]12` [dutasteride], the Normal melting temperature amounted to 242 ± 1 °C.

As to `CC(C)(C)NC(=O)[C@H]1CC[C@H]2[C@@H]3CC[C@H]4NC(=O)C=C[C@]4(C)[C@H]3CC[C@]12C` [finasteride], the Normal melting temperature was determined as 252 ± 1 °C.

For the molecule `CC(C)C(=O)Nc1ccc([N+](=O)[O-])c(C(F)(F)F)c1` [flutamide], the Normal melting temperature came to 111 ± 1 °C.

Values taken from the NIST ThermoML archive (doi:10.1021/je900520a).
